Source: article PMC8222713, “Variation of Two S3b Residues in KV4.1–4.3 Channels Underlies Their Different Modulations by Spider Toxin κ-LhTx-1” (Frontiers in Pharmacology, 2021)
Where a SMILES comes first, the peptide text is derived from it. Bridges are numbered along the chain shown (N, C = ends).

Columns and labels:
[1] = tested on: KV4.1 channel gating currents; experiment: Gating current recording, KV4.1; assay type: cell-based, mouse; settings: KV4.1, n = 5–6
Procedure: (§1) The cDNA of hKV1.1, hKV1.3, rKV1.4, hKV1.5, rKV2.1, hKV3.1–3.4, mKV4.1, rKV4.2, and rKV4.3 were subcloned in the eukaryotic expression vector pCDNA3.1 or pCMV-blank. Channel mutants were made by a site-directed mutation method. Briefly, a pair of oppositely directed primers with 15 bp overlap at their 5′ ends and the designed mutation site were used to amplify the parental channel plasmid, then the PCR mix was treated with DpnI to remove the template. 10 μL digestion mix was directly used to transform 100 μL DH5α chemical competent cells. The correct mutation made by this procedure was finally confirmed by DNA sequencing. […] 4–6 h after transfection, cells were seeded onto poly-lysine (PLL) coated coverslips, and 24–36 h later, transfected cells were ready for patch-clamp analysis. […]
(§2) Whole-cell patch clamp recording was performed in an electrophysiology platform equipped with MultiClamp 700B amplifier and Axon Digidata 1550 AD/DA convertor (Axon Instruments, Irvine, CA, United States). […] The whole cell conductance (G) at each depolarizing voltage (V) was determined using the equation: G = I/(V−Vrev), where I and Vrev represents the current amplitude and the reversal potential, respectively. In the present study, Vrev for K^+ current is determined to be −85.61 mV using the Nernst equation. […] Gating currents of KV4.1–4.3 channels were measured as previously reported ([Tilley et al., 2019]). […]

KV3.3 channel (hKV3.3) = experiment: Whole-cell patch clamp selectivity, KV3.3; assay type: cell-based, human; settings: KV3.3, 10 µM, n = 5
Procedure: as §1, §2

KV1.4 channel (rKV1.4) = experiment: Whole-cell patch clamp selectivity, KV1.4; assay type: cell-based, rat; settings: KV1.4, 10 µM, n = 5
Procedure: as §1, §2

[2] = tested on: KV4.1/282TD (P282T/K283D double mutant); experiment: Whole-cell patch clamp, KV4.1/282TD in CHO-K1 cells; assay type: cell-based, mouse
Procedure: (§3) The cDNA of hKV1.1, hKV1.3, rKV1.4, hKV1.5, rKV2.1, hKV3.1–3.4, mKV4.1, rKV4.2, and rKV4.3 were subcloned in the eukaryotic expression vector pCDNA3.1 or pCMV-blank. Channel mutants were made by a site-directed mutation method. Briefly, a pair of oppositely directed primers with 15 bp overlap at their 5′ ends and the designed mutation site were used to amplify the parental channel plasmid, then the PCR mix was treated with DpnI to remove the template. 10 μL digestion mix was directly used to transform 100 μL DH5α chemical competent cells. The correct mutation made by this procedure was finally confirmed by DNA sequencing. CHO-K1 cells (ATCC® CCL-61™) were grown in DMEM-F12 mixed medium (1:1) supplemented with 10% FBS and maintained in standard conditions (saturated humidity, 37°C, 5% CO2). Channel plasmid was co-transfected with pEGFP-N1 (encodes the green fluoresence protein) into CHO-K1 cells using lipofectamine 2000 following the manufacturer’s instructions. 4–6 h after transfection, cells were seeded onto poly-lysine (PLL) coated coverslips, and 24–36 h later, transfected cells were ready for patch-clamp analysis. It should be note that KV4.2 and its mutants were also co-expressed with hKChIP1 to promote their functional expressions.
(§4) Whole-cell patch clamp recording was performed in an electrophysiology platform equipped with MultiClamp 700B amplifier and Axon Digidata 1550 AD/DA convertor (Axon Instruments, Irvine, CA, United States). Data were acquired using the pClamp software (Axon Instruments, Irvine, CA, United States). All experiments were performed at room temperature. The bath solution contains (in mM): 140 NaCl, 5 KCl, 1 MgCl2, 2 CaCl2, 10 glucose, and 10 HEPES (pH = 7.3). The pipette solution contains (in mM): 140 KCl, 2.5 MgCl2, 11 EGTA, and 10 HEPES (pH = 7.3). Series resistance was kept below 10 MΩ and compensated to 80%. The concentration–response curves were fitted by a Hill logistic equation to estimate the potency (IC50) of the toxin. The whole cell conductance (G) at each depolarizing voltage (V) was determined using the equation: G = I/(V−Vrev), where I and Vrev represents the current amplitude and the reversal potential, respectively. In the present study, Vrev for K^+ current is determined to be −85.61 mV using the Nernst equation. G-V curve was obtained by plotting the normalized G as a function of V and fitted by the Boltzmann equation: y = 1/{1 + exp [(Va−V)/K]}, in which Va, V, and K represents half-maximum activation voltage, test voltage and slope factor, respectively. The steady-state fast inactivation of KV4 channels was measured using a classical two-pulses protocol: cell was held at −120 mV, and a train of conditional voltages (−120–40 mV, in 10 mV increment, 1,000 ms) were applied to induce channel inactivation, followed by a +60 mV test pulse (300 ms) to assess the proportion of non-inactivated channels; the sweep interval was set to 10 s. Currents at the test pulse (I) were normalized to the maximum value (Imax) and plotted as a function of the conditional voltage (V), the curve was fitted by the Boltzmann equation: I/Imax = A + (1−A)/{1 + exp [(V−Vh)/K]}, where Vh is the half-maximum inactivation voltage, A represents the minimum channel availability, and K is the slope factor. Gating currents of KV4.1–4.3 channels were measured as previously reported ([Tilley et al., 2019]). Briefly, the ionic pore currents were abolished by replacing K^+ with NMDG^+ in the pipette solution, and 10 µM Cs^+ was present in the bath solution to occupy the selectivity filter of KV channels to prevent decay of the gating currents during recording.
(§5) Data were presented as MEAN ± SEM, n represents the number of separate experimental cells. Data were analyzed using the software Clampfit 10.5 (Axon Instruments, Irvine, CA, United States), Graphpad Prism 5.01 (GraphPad Software, La Jolla, CA, United States) and Excel 2010 (Microsoft Corporation, Redmond, WA, United States). […]

KV1.5 channel (hKV1.5) = experiment: Whole-cell patch clamp selectivity, KV1.5; assay type: cell-based, human; settings: KV1.5, 10 µM, n = 5
Procedure: as §1, §2

KV4.2/D281K mutant = experiment: Whole-cell patch clamp, KV4.2/D281K (with hKChIP1) in CHO-K1 cells; assay type: cell-based, rat
Procedure: as §3, §4, §5

[3] = 10 μM κ-LhTx-1, G-V, mean ± SEM, n = 5
[4] = 10 μM κ-LhTx-1, two-pulse protocol, mean ± SEM, n = 5
[5] = Va shift by 10 μM κ-LhTx-1 vs control, mean ± SEM
[6] = Vh shift by 10 μM κ-LhTx-1 vs control, mean ± SEM
[7] = 10 μM κ-LhTx-1, G-V, mean ± SEM, n = 6
[8] = 10 μM κ-LhTx-1, two-pulse protocol, mean ± SEM, n = 6

CC[C@H](C)[C@@H]1NC(=O)[C@H](CCC(N)=O)NC(=O)[C@@H]2CSSC[C@@H]3NC(=O)[C@H](CC(C)C)NC(=O)[C@H](CC(N)=O)NC(=O)[C@H](CCSC)NC(=O)[C@H](Cc4c[nH]c5ccccc45)NC(=O)[C@H](CO)NC(=O)[C@H](C)NC(=O)[C@@H](NC(=O)[C@H](CCC(=O)O)NC(=O)[C@H](CCC(N)=O)NC(=O)[C@H](C)NC(=O)[C@H](CC(=O)O)NC(=O)[C@@H](N)CCC(=O)O)CSSC[C@H](NC(=O)[C@H](CSSC[C@@H](C(=O)N[C@@H](CCCCN)C(=O)N[C@@H](Cc4ccc(O)cc4)C(=O)N[C@@H](CCCCN)C(=O)N[C@@H](CC(C)C)C(N)=O)NC(=O)[C@H](Cc4c[nH]c5ccccc45)NC1=O)NC(=O)[C@H](CCCCN)NC(=O)[C@H](CCCCN)NC(=O)[C@H](CCC(=O)O)NC(=O)CNC3=O)C(=O)N[C@@H](CCC(=O)O)C(=O)NCC(=O)N[C@@H](Cc1ccc(O)cc1)C(=O)N[C@@H](C(C)C)C(=O)N2 [κ-LhTx-1] (H-EDAQECASWMNLCGEKKCCEGYVCQIWCKYKL-NH2; disulfide 6-19, 13-24, 18-28 (inferred); N-terminus and C-terminus assumed)
gating current inhibition [1]: inhibited the gating currents | effect on currents (KV3.3 channel (hKV3.3)): did not remarkably affect the currents | effect on currents (KV1.4 channel (rKV1.4)): did not remarkably affect the currents | Va (steady-state activation) [2, 3]: 29.00 ± 0.52 mV | k, slope factor (steady-state activation) [2, 3]: 25.50 ± 0.51 mV | Vh (steady-state inactivation) [2, 4]: -56.22 ± 2.80 mV | k, slope factor (steady-state inactivation) [2, 4]: 5.95 ± 0.32 mV | inhi%(min) ([2]; 10 μM, +100 mV): approaching zero | ∆Va (steady-state activation) [2, 5]: 37.82 ± 2.83 mV | ∆Vh (steady-state inactivation) [2, 6]: 3.38 ± 3.15 mV | effect on currents (KV1.5 channel (hKV1.5)): did not remarkably affect the currents | Va (steady-state activation) (KV4.2/D281K mutant; [7]): 61.96 ± 1.96 mV | k, slope factor (steady-state activation) (KV4.2/D281K mutant; [7]): 18.73 ± 0.70 mV | Vh (steady-state inactivation) (KV4.2/D281K mutant; [8]): -27.43 ± 2.53 mV | k, slope factor (steady-state inactivation) (KV4.2/D281K mutant; [8]): 15.24 ± 1.42 mV | voltage-dependence of inhibition vs parental KV4.2 (KV4.2/D281K mutant; 10 μM, still greater than in KV4.1): much less voltage-dependence | ∆Va (steady-state activation) (KV4.2/D281K mutant; [5]): 68.10 ± 2.92 mV | ∆Vh (steady-state inactivation) (KV4.2/D281K mutant; [6]): 33.23 ± 2.95 mV
